Source: patent US9499572B2, “Phosphatidylalkanols and compositions thereof” (Pethmark AB, priority 2013, dated 2016)
Structures can show the parent of a compound that is named as a salt.

Assay: Estimated concentration in DMSO-d6 after shaking an excess at 38° C., cooling to 22° C. and decantation (1H-NMR integrals)
Type: physicochemical
Conditions: organic solvent or mixture, thermodynamic from solid, Composition Example 13, excess shaken at 38° C. for 15 min, cooled to 22° C., decanted, no additive, read-out: concentration in the solution (limit of solubility)
Experimental: A mixture of PEth-16:0/18:1-NMe3 (15 mg), dimethyl sulfone (0.4 mg) and DMSO-d6 (0.75 ml) was shaken at 38° C. for 15 min. The mixture was then allowed to reach ambient temperature (22° C.) and kept at that temperature for 1 h. The solution was then separated from a glassy precipitate by decantation and transferred to an NMR-tube. The concentration of PEth-16:0/18:1-NMe3 in the solution was estimated to be about 3 mg/ml by comparison of ^1H-NMR integrals in the ^1H-NMR spectrum (FIG. 7) of signals from PEth-16:0/18:1-NMe3 with the signal of dimethyl sulfone.

CCCCCCCC/C=C\CCCCCCCC(=O)O[C@H](COC(=O)CCCCCCCCCCCCCCC)COP(=O)(O)OCC [PEth-16:0/18:1-NMe3, 1-Palmitoyl-2-oleoyl-3-ethoxyhydroxyphosphinyl-sn-glycerol trimethylammonium salt]
solubility at 15 min: ~3000 µg/mL
